Reference: patent US20100063047A1 (KALYPSYS, INC., priority 2008, published 2010)
Where two headings read alike, the source gives them in different places.

Molecular target: T1, human H1 (Homo sapiens, UniProt P35367)
T1 construct: host or cells: CHO-K1, also expressing mitochondrion-targeted aequorin
Test: In vitro histamine H1 receptor cell-based aequorin bioluminescence antagonist assay
Method: In vitro Histamine Receptor Cell-Based Assays
The cell-based assays utilize an aequorin dependent bioluminescence signal. Doubly-transfected, stable CHO—K1 cell lines expressing human H1 or H4, mitochondrion-targeted aequorin, and (H4 only) human G protein Gα16 are obtained from Perkin-Elmer. Cells are maintained in F12 (Ham's) growth medium, containing 10% (vol./vol.) fetal bovine serum, penicillin (100 IU/mL), streptomycin (0.1 mg/mL), zeocin (0.25 mg/mL) and geneticin (0.40 mg/mL). Cell media components are from Invitrogen, Inc. One day prior to assay, the growth medium is replaced with the same, excluding zeocin and geneticin.
For assay preparation, growth medium is aspirated, and cells are rinsed with calcium-free, magnesium-free phosphate-buffered saline, followed by two to three minute incubation in Versene (Invitrogen, Inc.) at 37° C. Assay medium (DMEM:F12 [50:50], phenol-red free, containing 1 mg/mL protease-free bovine serum albumin) is added to collect the released cells, which are then centrifuged. The cell pellet is re-suspended in assay medium, centrifuged once more, and re-suspended in assay medium to a final density of 5×10^6 cells/mL. Coelenterazine-h dye (500 μM in ethanol) is added to a final concentration of 5 μM, and mixed immediately. The conical tube containing the cells is then wrapped with foil to protect the light-sensitive dye. The cells are incubated for four hours further at room temperature (approximately 21° C.) with end-over-end rotation to keep them in suspension.
Just before assay, the dye-loaded cells are diluted to 0.75×10^6 cells/mL (H1 receptor) or 1.5×10^6 cells/mL (H4 receptor) with additional assay medium. Cells are dispensed to 1536 well micro-titer plates at 3 μL/well. To assay receptor antagonism, 60 nl of 100× concentration test compounds in 100% dimethyl sulfoxide (DMSO) are dispensed to the wells, one compound per well, by passive pin transfer, and the plates are incubated for 15 minutes at room temperature. […] The pipette dispenses 3 μL/well of agonist (histamine, at twice the final concentration, where final concentration is a previously determined EC80) in assay medium, with concurrent bioluminescence detection. Agonist activity of test compounds is excluded by separate assays that measure response to test compounds immediately, without added histamine agonist.
CCD image capture on the Lumilux includes a 5 second baseline read prior to agonist addition, and generally a 40 second read per plate after agonist addition. A decrease in bioluminescence signal (measured either as area-under-the-curve, or maximum signal amplitude minus minimum signal amplitude) correlates with receptor antagonism in a dose dependent manner. The negative control is DMSO lacking any test compound. For antagonist assays, the positive controls are diphenhydramine (2-Diphenylmethoxy-N,N-dimethylethylamine, 10 μM final concentration, H1 receptor) or JNJ7777120 (1-[(5-Chloro-1H-indol-2-yl)carbonyl]-4-methyl-piperazine, 10 μM final concentration, H4 receptor). Efficacy is measured as a percentage of positive control activity.

[1] = CHO-K1 cells expressing human H1 and aequorin, histamine at EC80, read-out: H1 Antagonist EC50

T1 sequence (P35367 whole entry): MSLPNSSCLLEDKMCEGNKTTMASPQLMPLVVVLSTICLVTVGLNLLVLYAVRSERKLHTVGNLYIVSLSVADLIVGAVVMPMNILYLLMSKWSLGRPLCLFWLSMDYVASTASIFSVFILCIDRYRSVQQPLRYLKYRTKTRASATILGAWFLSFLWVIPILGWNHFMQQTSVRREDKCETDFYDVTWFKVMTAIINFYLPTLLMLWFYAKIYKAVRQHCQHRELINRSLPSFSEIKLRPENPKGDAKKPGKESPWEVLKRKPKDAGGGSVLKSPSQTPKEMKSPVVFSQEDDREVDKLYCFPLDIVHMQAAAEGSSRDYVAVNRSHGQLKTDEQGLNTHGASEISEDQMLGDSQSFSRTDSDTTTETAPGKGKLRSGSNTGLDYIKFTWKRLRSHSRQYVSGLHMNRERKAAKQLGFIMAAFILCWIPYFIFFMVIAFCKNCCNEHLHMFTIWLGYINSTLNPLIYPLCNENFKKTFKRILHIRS

| SMILES | EC50 [1] | EC50 |
| --- | --- | --- |
| Cc1csc2ncnc(NCc3ccc(C(C)(C)C)cc3)c12 [Example 156, N-[(4-tert-butylphenyl)methyl]-5-methylthieno[2,3-d]pyrimidin-4-amine] | > 10 µM |  |
| CCN(Cc1ccccc1)c1ncnc2scc(C)c12 [Example 217, N-benzyl-N-ethyl-5-methylthieno[2,3-d]pyrimidin-4-amine] | > 10 µM |  |
| Cc1csc2ncnc(NCCc3ccccc3Cl)c12 [Example 148, N-[2-(2-chlorophenyl)ethyl]-5-methylthieno[2,3-d]pyrimidin-4-amine] | > 10 µM |  |
| Cc1csc2ncnc(N3CCC(Cc4ccccc4)CC3)c12 [Example 240, 4-benzyl-1-{5-methylthieno[2,3-d]pyrimidin-4-yl}piperidine] | > 10 µM |  |
| Cc1csc2ncnc(NCCCc3ccccc3)c12 [Example 117, 5-methyl-N-(3-phenylpropyl)thieno[2,3-d]pyrimidin-4-amine] | > 10 µM |  |
| Cc1csc2ncnc(N3CCN(CCN4CCOCC4)CC3)c12 [Example 269, 4-[2-(4-{5-methylthieno[2,3-d]pyrimidin-4-yl}piperazin-1-yl)ethyl]morpholine] | > 10 µM |  |
| Cc1csc2ncnc(NC3CCC3)c12 [Example 58, N-cyclobutyl-5-methylthieno[2,3-d]pyrimidin-4-amine] | > 10 µM |  |
| Clc1ccc(CCNc2ccnc3sccc23)cc1 [Example 38, N-(4-chlorophenethyl)thieno[2,3-b]pyridin-4-amine] | > 10 µM |  |
| Cc1csc2ncnc(NCc3ccc(Cl)c(Cl)c3)c12 [Example 166, N-[(3,4-dichlorophenyl)methyl]-5-methylthieno[2,3-d]pyrimidin-4-amine] | > 10 µM |  |
| Cc1csc2ncnc(NCC(C)c3ccccc3)c12 (stereo not drawn) [Example 116, 5-methyl-N-(2-phenylpropyl)thieno[2,3-d]pyrimidin-4-amine] | > 10 µM |  |
| Cc1csc2ncnc(N[C@H](C)c3ccccc3)c12 [Example 97, 5-methyl-N-[(1R)-1-phenylethyl]thieno[2,3-d]pyrimidin-4-amine] | > 10 µM |  |
| Cc1csc2ncnc(NCCc3ccc4c(c3)OCO4)c12 [Example 175, N-[2-(2H-1,3-benzodioxol-5-yl)ethyl]-5-methylthieno[2,3-d]pyrimidin-4-amine] | > 10 µM |  |
| c1ccc(CCNc2ncnc3sccc23)cc1 [Example 290, N-phenethylthieno[2,3-d]pyrimidin-4-amine] | > 10 µM |  |
| Cc1cccc(CCNc2ncnc3scc(C)c23)c1 [Example 20] | > 10 µM |  |
| Cc1ccc(CNc2ncnc3scc(C)c23)cc1 [Example 100, 5-methyl-N-[(4-methylphenyl)methyl]thieno[2,3-d]pyrimidin-4-amine] | > 10 µM |  |
| Clc1ccccc1CCNc1ncnc2sc3c(c12)CCCC3 [Example 297] | > 10 µM |  |
| Cc1csc2ncnc(N3CCN(C(=O)OC(C)(C)C)CC3)c12 [Example 250, tert-butyl 4-{5-methylthieno[2,3-d]pyrimidin-4-yl}piperazine-1-carboxylate] | > 10 µM |  |
| Cc1csc2ncnc(NCC3CCc4cc(Cl)ccc43)c12 (stereo not drawn) [Example 30, N-((5-chloro-2,3-dihydro-1H-inden-1-yl)methyl)-5-methylthieno[2,3-d]pyrimidin-4-amine] | > 10 µM |  |
| Cc1csc2ncnc(NCc3ccccc3)c12 [Example 83, N-benzyl-5-methylthieno[2,3-d]pyrimidin-4-amine] | > 10 µM |  |
| Cc1csc2ncnc(NCc3ccc(F)c(Cl)c3)c12 [Example 152, N-[(3-chloro-4-fluorophenyl)methyl]-5-methylthieno[2,3-d]pyrimidin-4-amine] | > 10 µM |  |
| CC(Nc1ncnc2sccc12)c1ccccc1 (stereo not drawn) [Example 311, N-(1-phenylethyl)thieno[2,3-d]pyrimidin-4-amine] | > 10 µM |  |
| Cc1csc2ncnc(NCC(C)c3ccccc3)c12 (stereo not drawn) [Example 119, 5-methyl-N-(2-phenylpropyl)thieno[2,3-d]pyrimidin-4-amine] | > 10 µM |  |
| Cc1cccc(CNc2ncnc3scc(C)c23)c1 [Example 95, 5-methyl-N-[(3-methylphenyl)methyl]thieno[2,3-d]pyrimidin-4-amine] | > 10 µM |  |

| SMILES | EC50 [1] | EC50 |
| --- | --- | --- |
| Cc1csc2ncnc(NCc3cccc(C(F)(F)F)c3)c12 [Example 165, 5-methyl-N-{[3-(trifluoromethyl)phenyl]methyl}thieno[2,3-d]pyrimidin-4-amine] | > 10 µM |  |
| Cc1csc2c(NCCc3ccc(Cl)cc3)ncnc12 [Example 295, N-(4-chlorophenethyl)-7-methylthieno[3,2-d]pyrimidin-4-amine] | > 10 µM |  |
| Cc1csc2ncnc(NC(C)CCCC(C)C)c12 (stereo not drawn) [Example 108, 5-methyl-N-(6-methylheptan-2-yl)thieno[2,3-d]pyrimidin-4-amine] | > 10 µM |  |
| c1nc(NCc2ccc(CN3CCOCC3)cc2)c2c3c(sc2n1)CCC3 [Example 309] | > 10 µM |  |
| Cc1csc2ncnc(NCc3ccc(C(F)(F)F)cc3)c12 [Example 164, 5-methyl-N-{[4-(trifluoromethyl)phenyl]methyl}thieno[2,3-d]pyrimidin-4-amine] | > 10 µM |  |
| Cc1csc2ncnc(NCCc3cccc(Cl)c3)c12 [Example 149, N-[2-(3-chlorophenyl)ethyl]-5-methylthieno[2,3-d]pyrimidin-4-amine] | > 10 µM |  |
| Cc1csc2ncnc(NCCc3ccc(F)cc3)c12 [Example 17] | > 10 µM |  |
| Cc1csc2ncnc(NCC3CCCO3)c12 (stereo not drawn) [Example 77, 5-methyl-N-(oxolan-2-ylmethyl)thieno[2,3-d]pyrimidin-4-amine] | > 10 µM |  |
| COC(=O)C1CCN(c2ncnc3scc(C)c23)CC1 [Example 224, methyl 1-{5-methylthieno[2,3-d]pyrimidin-4-yl}piperidine-4-carboxylate] | > 10 µM |  |
| Cc1csc2ncnc(NC(CO)C(C)C)c12 (stereo not drawn) [Example 82, 3-methyl-2-({5-methylthieno[2,3-d]pyrimidin-4-yl}amino)butan-1-ol] | > 10 µM |  |
| Cc1csc2ncnc(NC3CCC(C)CC3)c12 (stereo not drawn) [Example 21, (4-Methylcyclohexyl)(5-methylthiopheno[3,2-e]pyrimidin-4-yl)amine] | > 10 µM |  |
| Cc1sc2ncnc(N3CCN(S(=O)(=O)c4ccc(C(C)(C)C)cc4)CC3)c2c1C [Example 310, 4-(4-(4-tert-butylphenylsulfonyl)piperazin-1-yl)-5,6-dimethylthieno[2,3-d]pyrimidine] | > 10 µM |  |
| COc1ccc(OC)c(CCNc2ncnc3scc(C)c23)c1 [Example 169, N-[2-(2,5-dimethoxyphenyl)ethyl]-5-methylthieno[2,3-d]pyrimidin-4-amine] |  | > 10 µM |
| Cc1csc2ncnc(NC3CCN(Cc4ccccc4)C3)c12 (stereo not drawn) [Example 168, 1-benzyl-N-{5-methylthieno[2,3-d]pyrimidin-4-yl}pyrrolidin-3-amine] | > 10 µM |  |
| Cc1csc2ncnc(NCc3ccc(C(C)C)cc3)c12 [Example 140, 5-methyl-N-{[4-(propan-2-yl)phenyl]methyl}thieno[2,3-d]pyrimidin-4-amine] | > 10 µM |  |
| CCc1cc2c(N3CCN(Cc4ccccc4)CC3)ncnc2s1 [Example 14, 4-(4-benzylpiperazin-1-yl)-6-ethylthieno[2,3-d]pyrimidine] | > 10 µM |  |
| Cc1csc2ncnc(NC3CCCCC3)c12 [Example 76, N-cyclohexyl-5-methylthieno[2,3-d]pyrimidin-4-amine] | > 10 µM |  |
| CCCCNc1ncnc2scc(-c3ccccc3)c12 [Example 47, N-butyl-5-phenylthieno[2,3-d]pyrimidin-4-amine] | > 10 µM |  |
| COc1cccc(CCNc2ncnc3scc(C)c23)c1 [Example 16, [2-(3-Methoxyphenyl)ethyl](5-methylthiopheno[3,2-e]pyrimidin-4-yl)amine] | > 10 µM |  |
| CCOC(=O)CNc1ncnc2scc(-c3ccccc3)c12 [Example 300, Ethyl 2-(5-phenylthieno[2,3-d]pyrimidin-4-ylamino)acetate] | > 10 µM |  |
| Cc1csc2ncnc(NC3CCCCC3C)c12 (stereo not drawn) [Example 91, 5-methyl-N-(2-methylcyclohexyl)thieno[2,3-d]pyrimidin-4-amine] | > 10 µM |  |
| Cc1csc2ncnc(N3CCN(c4ccc(C(F)(F)F)cc4)CC3)c12 [Example 287, 1-{5-methylthieno[2,3-d]pyrimidin-4-yl}-4-[4-(trifluoromethyl)phenyl]piperazine] | > 10 µM |  |
